9 compounds from patent publication US8318731B2, “Pyrrolopyrimidines” (Janssen Pharmaceutica NV, priority 2007, dated 2012) can be followed below.

The subject of one data set is H1299. Description: Cellular proliferation assay (Alamar blue), H1299. The format is cell-based. Particulars: 10% FCS, 72 h with compound, Alamar blue 4 h; for IC50: Homo sapiens, NCI-H1299, H1299 cells, read-out: pIC50 H1299 (converted). A digest of the protocol:
(§1)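 Viable cell number is determined by Alamar blue conversion after cells are treated with compound for 72 hours, following 24 hours of growth without compound in 10% FCS. The effect is calculated against control cells.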
A general note: The colour change of resazurin is a common sign of viable cells or microbes.

The test system of the next data set is U87-MG. Description: Cellular proliferation assay (Alamar blue), U87-MG. The format is cell-based. The settings on record: Homo sapiens, U-87 MG; U87-MG cells; 10% FCS; 72 h with compound; Alamar blue 6 h; read-out: pIC50 U87MG (converted). A digest of the protocol:
(§2)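 Read-out: resazurin-based Alamar blue fluorescence at 544/590 nm, with dye left 24 h on PC3 and A2780, 6 h on U87-MG and 4 h on HCT-116. Beforehand, cells grew 24 h compound-free, then 72 h with compound, in 10% FCS at 37° C./5% CO2. Values are expressed against untreated controls.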

A further data set addresses T1, PLK4 (h) (Homo sapiens, UniProt O00444).
T1 sequence (O00444 1-970): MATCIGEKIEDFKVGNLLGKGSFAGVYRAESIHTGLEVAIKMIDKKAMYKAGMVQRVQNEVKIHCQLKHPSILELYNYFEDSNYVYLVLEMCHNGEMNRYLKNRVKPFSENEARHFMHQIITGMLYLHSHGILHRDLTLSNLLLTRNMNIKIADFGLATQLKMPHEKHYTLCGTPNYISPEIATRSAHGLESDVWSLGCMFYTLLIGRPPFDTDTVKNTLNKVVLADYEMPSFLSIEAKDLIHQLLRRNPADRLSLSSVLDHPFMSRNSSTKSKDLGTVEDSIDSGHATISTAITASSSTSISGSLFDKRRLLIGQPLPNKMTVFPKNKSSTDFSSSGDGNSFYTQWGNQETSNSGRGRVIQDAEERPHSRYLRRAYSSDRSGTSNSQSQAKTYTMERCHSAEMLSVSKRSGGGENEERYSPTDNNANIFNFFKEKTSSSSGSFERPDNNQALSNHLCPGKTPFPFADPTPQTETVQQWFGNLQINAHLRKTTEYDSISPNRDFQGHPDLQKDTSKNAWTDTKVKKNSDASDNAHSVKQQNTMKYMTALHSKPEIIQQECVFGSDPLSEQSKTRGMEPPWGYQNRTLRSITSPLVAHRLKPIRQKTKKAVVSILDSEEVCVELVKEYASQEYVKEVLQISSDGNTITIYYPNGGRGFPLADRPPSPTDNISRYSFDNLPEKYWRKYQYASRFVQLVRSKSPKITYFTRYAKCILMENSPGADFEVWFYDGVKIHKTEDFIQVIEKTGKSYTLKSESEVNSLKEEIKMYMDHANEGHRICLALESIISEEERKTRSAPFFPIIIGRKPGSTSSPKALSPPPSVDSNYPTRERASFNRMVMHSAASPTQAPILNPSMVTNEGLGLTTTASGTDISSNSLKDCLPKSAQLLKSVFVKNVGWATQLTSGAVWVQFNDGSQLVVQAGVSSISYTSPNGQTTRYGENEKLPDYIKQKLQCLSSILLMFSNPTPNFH
Description: PLK-4 human kinase scintillation proximity assay (SPA). Type of data set: biochemical. The settings on record: 1 μM ATP, 60 minutes at r.t., read-out: PLK4 pIC50 (converted). A digest of the protocol:
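Scintillation proximity read-out: EDTA-stopped reactions were captured on streptavidin SPA beads after PLK4 (19 μg/ml) had phosphorylated 10 μM biotin-peptide for 60 min at room temperature, using 1 μM ATP spiked with 2 nM 33P-ATP in pH 8.0 HEPES buffer.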
For orientation: In a scintillation proximity assay essentially only radioactivity close to the scintillant gives light.

The next data set has as its system HCT-116. Description: Cellular proliferation assay (Alamar blue), HCT-116. The format is cell-based. The settings on record: Homo sapiens; HCT-116 cells; 10% FCS; 72 h with compound; Alamar blue 4 h; read-out: pIC50 HCT-116 (converted). A digest of the protocol:
as §2

Another data set relates to MDA-MB-231. Description: Cellular proliferation assay (Alamar blue), MDA-MB-231. The format is cell-based. The settings on record: 10% FCS, 72 h with compound, Alamar blue 24 h; for IC50: Homo sapiens, MDA-MB-231, MDA-MB-231 cells, read-out: pIC50 MDA/MB231 (converted). A digest of the protocol:
as §1

The next data set relates to A2780. Nature of the data set: Cellular proliferation assay (Alamar blue), A2780. The format is cell-based. Particulars: 10% FCS, 72 h with compound, Alamar blue 24 h; for IC50: Homo sapiens, A2780, A2780 cells, read-out: pIC50 A2780 (converted). A digest of the protocol: as §2
For another data set, the system named is PC3. Description: Cellular proliferation assay (Alamar blue), PC3. Type of data set: cell-based. Particulars: 10% FCS, 72 h with compound, Alamar blue 24 h; for IC50: Homo sapiens, PC-3, PC-3 cells, read-out: pIC50 PC-3 (converted). A digest of the protocol:
as §2

SMILES strings stand for the structures. Where only a bound is given, the exact number is not on record here.

As for `COc1ccc2cc1OCC(=O)N(C)CCCN(C)Cc1c[nH]c3ncnc(c13)N2` [Compound 7], the melting point (in general, the temperature, or range, at which the solid turns liquid) was found to be 267.9 °C. Moreover, the IC50 with H1299 was 1 µM. Besides, the IC50 with U87-MG is 1.26 µM. Besides, the IC50 on PLK4 (h) is 0.0398 µM. The IC50 in the data set with HCT-116 was 0.501 µM. Besides, in the data set with MDA-MB-231, the IC50 is 1.58 µM. For the same compound, in the data set on A2780, the IC50 is 0.631 µM. Further, the IC50 in the data set with PC3 is 2 µM.

Compound `COc1ccc2cc1OCC(=O)N(C)CCN(C)Cc1c[nH]c3ncnc(c13)N2` [Compound 10] displayed a melting point of 249.3 °C. In the data set on H1299, the IC50 was > 10 µM. For the same compound, the IC50 with U87-MG was > 10 µM. For the same compound, on PLK4 (h), the IC50 is 0.126 µM. Also, the IC50 in the data set on HCT-116 is > 10 µM. Also, the IC50 with MDA-MB-231 is > 10 µM. Further, the IC50 in the data set with A2780 is > 10 µM. Moreover, the IC50 in the data set with PC3 is > 10 µM.

Consider `CCOCCOc1ccc2cc1OCC(=O)N(C)CCCN(C)Cc1c[nH]c3ncnc(c13)N2` [Compound 70], for which the melting point is 237.8 °C. The IC50 with H1299 was 0.501 µM. The IC50 in the data set with U87-MG was 1.58 µM. The IC50 on PLK4 (h) was 0.0251 µM. Besides, in the data set on HCT-116, the IC50 is 0.1 µM. In addition, the IC50 with MDA-MB-231 was 2.51 µM. The IC50 with A2780 is 0.0794 µM. For the same compound, the IC50 with PC3 was 3.98 µM.

In turn, `CCOCCOc1ccc2cc1OCC(=O)N(C)CCCNCc1c[nH]c3ncnc(c13)N2` [Compound 75] returned a melting point of 237.4 °C. In addition, in the data set with H1299, the IC50 was > 10 µM. Further, the IC50 in the data set with U87-MG is > 10 µM. The IC50 at PLK4 (h) was 0.0398 µM. Moreover, the IC50 in the data set on HCT-116 is 0.794 µM. Also, in the data set on MDA-MB-231, the IC50 is > 10 µM. In the data set on A2780, the IC50 was 0.631 µM. In addition, the IC50 in the data set with PC3 was > 10 µM.

Compound `COc1ccc(OCCCOc2ccc3cc2OCC(=O)N(C)CCCN(C)Cc2c[nH]c4ncnc(c24)N3)cc1` [Compound 78] returned a melting point of 222.2 °C. The IC50 in the data set with H1299 is 2.51 µM. Also, the IC50 with U87-MG was 3.98 µM. In addition, the IC50 at PLK4 (h) is 0.0501 µM. Moreover, the IC50 in the data set on HCT-116 is 1.26 µM. Further, the IC50 in the data set on MDA-MB-231 was 6.31 µM. Also, in the data set with A2780, the IC50 is 1.26 µM. Moreover, the IC50 with PC3 was 5.01 µM.

`CN1CCCN(C)C(=O)COc2cc(ccc2OCCNc2ccc(Cl)cc2)Nc2ncnc3[nH]cc(c23)C1` [Compound 79]: the melting point stood at 269.3 °C. In addition, in the data set on H1299, the IC50 was 0.794 µM. Further, the IC50 in the data set on U87-MG is 3.16 µM. At PLK4 (h), the IC50 was 0.1 µM. Moreover, the IC50 with HCT-116 is 0.251 µM. Moreover, in the data set on MDA-MB-231, the IC50 was 5.01 µM. In addition, the IC50 with A2780 was 0.2 µM. Also, in the data set on PC3, the IC50 is 3.98 µM.

`CCOCCOc1ccc2cc1OCC(=O)N(C)CCCN(C)Cc1cn(C)c3ncnc(c13)N2` [Compound 81] yielded a melting point of 221 °C. In addition, the IC50 in the data set on H1299 was 0.631 µM. In addition, in the data set with U87-MG, the IC50 is 0.501 µM. Moreover, the IC50 at PLK4 (h) is 0.0794 µM. In addition, the IC50 with HCT-116 is 0.251 µM. Also, the IC50 with MDA-MB-231 is 2 µM. For the same compound, the IC50 with A2780 was 0.2 µM. In addition, the IC50 with PC3 is > 10 µM.

Turning to `CN1CCCN(C)C(=O)COc2cc(ccc2OCCNc2nccs2)Nc2ncnc3[nH]cc(c23)C1` [Compound 156], the melting point was 238.4 °C. The IC50 with H1299 is 2 µM. The IC50 in the data set on U87-MG is 1.26 µM. Besides, the IC50 in the data set with HCT-116 is 0.631 µM. In the data set on MDA-MB-231, the IC50 is 3.16 µM. Moreover, the IC50 in the data set on A2780 was 0.501 µM. The IC50 in the data set with PC3 is 3.16 µM.

`CN1CCCN(C)C(=O)COc2cc(ccc2OCCN(C)c2nccs2)Nc2ncnc3[nH]cc(c23)C1` [Compound 157] displayed a melting point of 232.2 °C. Also, in the data set with H1299 (H1299 cells), the “pIC50 H1299” value is given as 6.00. Besides, the IC50 in the data set with H1299 is 1.26 µM. In the data set with U87-MG, the IC50 is 1 µM. Moreover, in the data set on HCT-116, the IC50 was 0.501 µM. In addition, the IC50 with MDA-MB-231 is 3.16 µM. In addition, the “pIC50 MDA/MB231” value in the data set with MDA-MB-231 (MDA-MB-231 cells) was 5.6. The “pIC50 A2780” value in the data set with A2780 (A2780 cells) is 6.4. Besides, in the data set on A2780, the IC50 is 0.501 µM. Moreover, the IC50 in the data set on PC3 is 3.16 µM. For the same compound, the “pIC50 PC-3” value in the data set on PC3 (PC-3 cells) was 5.6.
